Measured values published in US7531164B2 (priority 2005, dated 2009).

Legend:
[1] = Working Example XII: atherosclerosis patient, anti-VEGFR plus NO inhibitor/scavenger; assay type: in vivo, human; settings: 2 gms/day L-NMA or 10 mg/day vitamin B-12 with 100 mg/kg anti-VEGFR three times a week; six months later
Method: A person with atherosclerosis is administered 100 mg/kg anti-VEGFR three times a week via infusion and 2 gms/day of L-NMA or 10 mg/day vitamin B-12.

[2] = test system: EGFR expressing metastatic colorectal cancer; experiment: Working Example XIII: EGFR expressing metastatic colorectal cancer patient; assay type: in vivo, human; settings: 5 gm L-NMA or 10 mg vitamin B12 infused concurrently with cebuximab
Method: A person with EGFR expressing metastatic colorectal cancer is given an initial loading dose of 400 mg/m^2 cebuximab as a 120 minute infusion at 2.5 mL/min with weekly maintenance doses of 250 mg/M^2 over 60 minutes at 2.5 mL/min. Concurrently the patient is infused with 5 gm L-NMA or 10 mg vitamin B12.

[3] = Working Example XIV: unstable angina patient, abciximab plus NO inhibitor/scavenger; assay type: in vivo, human; settings: L-NMA (5g) or 10 mg vitamin B-12 IV with abciximab and heparin; at 30 days
Method: A patient with unstable angina presents to the emergency room.
Abciximab is administered at 0.25 mg/kg as an intravenous bolus followed by infusion of […] for 12 hours. Heparin is concurrently administered in a different line with an initial dosage of 70 μg/kg with continuing infusion to maintain ACT of 200-300.
L-NMA (5g) or 10 mg vitamin B-12 is administered IV through a different line.
Need for urgent revascularization is only 2% at 30 days.

colon cancer = experiment: Working Example III: prophylaxis of colon cancer in immunocompromised patient; assay type: in vivo, human; settings: 5 gm LNMA or 10 mg vitamin B12 infused concurrently with cetuximab; two years later
Method: An immunocompromised patient at risk for colon cancer is given an initial loading dose of 200 mg/M^2 cetuximab as a 120 minute infusion with weekly maintenance doses of 125 mg/M^2 over 60 minutes weekly. Perfusion rate is 4 mL/min. Concurrently the patient is infused with 5 gm LNMA or 10 mg vitamin B12.
For each 50 ml vial: • 100 mg cetuximab • at a concentration of 2 mg/ml • 1mg LNMA or 2 mg Vitamin B-12 • 8.48 mg/ml sodium chloride • 1.88 mg/ml sodium phosphate dibasic heptahydrate • 0.42 mg/ml sodium phosphate monohydrate • water for injection to […]
The composition is administered in the case of Working Example III.

E.coli and HIV = experiment: Working Example II: prophylaxis after exposure to blood infected by E.coli and HIV; assay type: in vivo, human; settings: B12 10 mg with AZT 600 mg and ampicillin 1 gm for 6 days; at a week
Method: A patient is exposed to blood infected by “E.coli” and HIV following coronary artery bypass surgery. AZT (prophylactic dose of 600 mg) and B12 (which scavenges NO) (dose 10 mg) are given in combination with ampicillin (prophylactic dose of 1 gm) for 6 days Bacterial and HIV titer are undetectable at a week.

VSV = assay type: cell-based
AMLV = assay type: cell-based; settings: AMLV envelope
HIV (denoted NL4-3) = assay type: cell-based; settings: NL4-3 envelope
HIV = experiment: Working Example I: prophylaxis after exposure to HIV positive partner; assay type: in vivo, human; settings: 1 gm L-NMMA Q 6 hrs for 3 days with AZT 600 mg; day 7
Method: A person finds that their partner the previous night is HIV positive. They present to the Emergency Room where they are given a prophylactic dose of AZT (600 mg dose) and a dose of 1 gm L-NMMA Q 6 hrs for 3 days. Blood titers for HIV are restive at day 7.

influenza A = experiment: Working Example XVII: prophylaxis in immunocompromised patient exposed to influenza; assay type: in vivo, human; settings: 5 gms/day L-NMA p.o. for one week, then amantadine 100 mg p.o. b.i.d. for two weeks
Method: An immunocompromised patient is exposed to a patient diagnosed with influenza. The patient is given 5 gms/day L-NMA p.o. After one week the patient tests positive for influenza A and L-NMA administration is stopped and the patient is given amantadine, 100 mg p.o., b.i.d. for two weeks.

hepatitis C = experiment: Working Example XI: transfusion of hepatitis C infected whole blood containing L-NMA; assay type: in vivo, human; settings: whole blood containing 1 gm L-NMA per unit, infected with hepatitis C
Excerpt: Whole blood containing 1 gm L-NMA per unit is transfused into a patient.

[4] = Working Example IV: beta agonist response in heart failure patient; assay type: in vivo, human; settings: 0.1 mg/kg LNMA for 24 hours; improves from 3 L/min
Method: A person with heart failure is admitted to a hospital for a dobutamine holiday (where a congestive heart failure patient spends 1-2 days in the hospital to receive a dobutamine drip every month or so). The patient is administered 0.1 mg/kg LNMA for 24 hours. Beta agonist sensitive response as measured by cardiac output improves from 3 L/min. to 3.5 L/min.

[5] = Working Example V: asthma exacerbation frequency; assay type: in vivo, human; settings: 1 gm/day LNMA four times a week for a year; normally four exacerbations of asthma per year
Excerpt: An asymptomatic person who normally has four exacerbations of asthma per year is given 1 gm/day LNMA four times a week for a year. Exacerbation frequency decreases to once a year.

[6] = compared to envelope protein with no anti-CD4 or inhibitor

Compound | plaque destabilization and heart attack [1] | disease related symptoms [2] | Need for urgent revascularization [3] [%] | colon cancer status (colon cancer) | Bacterial and HIV titer (E.coli and HIV) | % Infection (VSV) [%] | Mean (cells infected) (VSV) | Mean (cells infected) (AMLV; […], no-inhibitor AMLV mean 164904) | % Infection (AMLV; [6]) [%] | Mean (cells infected) (HIV (denoted NL4-3); […], no-inhibitor NL4-3 mean 108400, cells only 66) | % Infection (HIV (denoted NL4-3); [6]) [%] | Blood titers for HIV (HIV) | Flu symptoms (influenza A) | development of hepatitis C (hepatitis C) | Beta agonist sensitive response as measured by cardiac output [4] [L/min] | Exacerbation frequency [5]
C/C1=C2/[N-][C@H]([C@H](CC(N)=O)[C@@]2(C)CCC(=O)NC[C@@H](C)OP(=O)([O-])O[C@H]2[C@@H](O)[C@@H](n3cnc4cc(C)c(C)cc43)O[C@@H]2CO)[C@]2(C)N=C(/C(C)=C3N=C(/C=C4N=C1[C@@H](CCC(N)=O)C\4(C)C)[C@@H](CCC(N)=O)[C@]\3(C)CC(N)=O)[C@@H](CCC(N)=O)[C@]2(C)CC(N)=O.[Co+3].[OH-] [vitamin B12, hydroxocobalamin] | plaque is not destabilized and no heart attack has occurred | Improvement in disease related symptoms is noted | 2 | colon cancer free | undetectable |  |  |  |  |  |  |  |  |  |  | 
COC(=O)[C@@H](N)CCCNC(=N)N[N+](=O)[O-] [Inhibitor A, N^G-nitro-L-arginine methyl ester] |  |  |  |  |  | 41.9 | 120209 | 60090 | 36.4 | 50359 | 46.5 |  |  |  |  | 
CNC(=N)NCCC[C@H](N)C(=O)O [L-NMA, L-methylarginine] | plaque is not destabilized and no heart attack has occurred | Improvement in disease related symptoms is noted | 2 | colon cancer free |  |  |  |  |  |  |  | restive | Flu symptoms disappear | does not develop hepatitis C | 3.5 | once a year
